Target: T1, human M2 receptor (Homo sapiens, UniProt P08172)
T1 sequence (P08172 1-466): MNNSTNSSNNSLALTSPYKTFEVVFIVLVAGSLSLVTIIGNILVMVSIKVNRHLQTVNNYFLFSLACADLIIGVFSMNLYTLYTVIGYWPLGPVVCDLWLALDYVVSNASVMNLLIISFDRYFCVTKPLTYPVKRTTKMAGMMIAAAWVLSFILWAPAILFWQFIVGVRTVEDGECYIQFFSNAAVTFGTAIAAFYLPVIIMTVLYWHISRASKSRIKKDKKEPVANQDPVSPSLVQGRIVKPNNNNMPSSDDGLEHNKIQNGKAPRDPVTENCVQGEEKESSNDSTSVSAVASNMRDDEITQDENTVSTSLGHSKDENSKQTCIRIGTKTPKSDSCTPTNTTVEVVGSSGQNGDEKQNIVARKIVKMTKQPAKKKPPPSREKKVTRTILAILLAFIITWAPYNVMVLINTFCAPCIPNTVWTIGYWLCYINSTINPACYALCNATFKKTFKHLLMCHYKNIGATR
Details: Receptor activity EC50, M2-GIRK1/4 activation test, acetylcholine at EC20; allosteric potency; in some cases mean values from two or more determinations

Row | SMILES | EC50 [nM]
1 | CC[C@@H](NC(=O)c1cn(-c2ccc(F)cc2F)c2nc(N3C[C@@H](C(=O)OC)OC3=O)ccc2c1=O)C(F)(F)F [Example 257, Methyl (5S)-3-[8-(2,4-difluorophenyl)-5-oxo-6-{[(2R)-1,1,1-trifluorobutan-2-yl]carbamoyl}-5,8-dihydro-1,8-naphthyridin-2-yl]-2-oxo-1,3-oxazolidine-5-carboxylate] | 138
2 | CC[C@@H](NC(=O)c1cn(-c2ccc(F)cc2F)c2nc(N3CC(C)(OC)C3)ccc2c1=O)C(F)(F)F [Example 328, 1-(2,4-Difluorophenyl)-7-(3-methoxy-3-methyazetidin-1-yl)-4-oxo-N-[(2R)-1,1,1-trifluorobutan-2-yl]-1,4-dihydro-1,8-naphthyridine-3-carboxamide] | 79
3 | CC[C@H](NC(=O)c1cn(-c2c(F)cc(F)cc2Cl)c2nc(N3C[C@@](C)(O)C[C@H]3C)ccc2c1=O)C(F)(F)F [Example 334, 1-(2-Chloro-4,6-difluorophenyl)-7-[(2R,4S)-4-hydroxy-2,4-dimethylpyrrolidin-1-yl]-4-oxo-N-[(2S)-1,1,1-trifluorobutan-2-yl]-1,4-dihydro-1,8-naphthyridine-3-carboxamide] | 7
4 | O=C(N[C@@H](C1CC1)C(F)(F)F)c1cn(-c2c(F)cccc2F)c2nc(N3C[C@@H](O)[C@H](O)C3)ccc2c1=O [Example 345, N-[(1 S)-1-Cyclopropyl-2,2,2-trifluoroethyl]-1-(2,6-difluorophenyl)-7-[(3R,4R)-3,4-dihydroxypyrrolidin-1-yl]-4-oxo-1,4-dihydro-1,8-naphthyridine-3-carboxamide] | 59
5 | CC[C@H](NC(=O)c1cn(-c2c(F)cccc2Cl)c2nc(N3C[C@@H](O)[C@H](O)C3)ccc2c1=O)C(F)(F)F [Example 346, 1-(2-Chloro-6-fluorophenyl)-7-[(3R,4R)-3,4-dihydroxypyrrolidin-1-yl]-4-oxo-N-[(2S)-1,1-trifluorobutan-2-yl]-1,4-dihydro-1,8-naphthyridine-3-carboxamide] | 50
6 | O=C(N[C@@H](C1CC1)C(F)(F)F)c1cn(-c2c(F)cccc2Cl)c2nc(N3C[C@@H](O)[C@H](O)C3)ccc2c1=O [Example 347, 1-(2-Chloro-6-fluorophenyl)-N-[(1 S)-1-cyclopropyl-2,2,2-trifluoroethyl]-7-[(3R,4R)-3,4-dihydroxypyrrolidin-1-yl]-4-oxo-1,4-dihydro-1,8-naphthyridine-3-carboxamide] | 34
7 | CC[C@H](NC(=O)c1cn(-c2c(F)cccc2F)c2nc(N3C[C@@H](O)[C@H](O)C3)ccc2c1=O)C(F)(F)F [Example 348, 1-(2,6-Difluorophenyl)-7-[(3R,4R)-3,4-dihydroxypyrrolidin-1-yl]-4-oxo-N-[(2S)-1,1,1-trifluorobutan-2-yl]-1,4-dihydro-1,8-naphthyridine-3-carboxamide] | 61
8 | CC[C@H](NC(=O)c1cn(-c2c(F)cccc2Cl)c2nc(N3C[C@@H](O)CC3=O)ccc2c1=O)C(F)(F)F [Example 351, 1-(2-Chloro-6-fluorophenyl)-7-[(4S)-4-hydroxy-2-oxopyrrolidin-1-yl]-4-oxo-N-[(2S)-1,1,1-trifluorobutan-2-yl]-1,4-dihydro-1,8-naphthyridine-3-carboxamide] | 17
9 | O=C(N[C@@H](C1CC1)C(F)(F)F)c1cn(-c2c(F)cccc2Cl)c2nc(N3C[C@@H](O)CC3=O)ccc2c1=O [Example 352, 1-(2-Chloro-6-fluorophenyl)-N-[(1S)-1-cyclopropyl-2,2,2-trifluoroethyl]-7-[(4S)-4-hydroxy-2-oxopyrrolidin-1-yl]-4-oxo-1,4-dihydro-1,8-naphthyridine-3-carboxamide] | 17
10 | C[C@@H](COC(F)(F)F)NC(=O)c1cn(-c2c(F)cc(F)cc2F)c2nc(N3C[C@@H](O)[C@H](O)C3)ccc2c1=O [Example 353, 7-[(3R,4R)-3,4-Dihydroxypyrrolidin-1-yl]-4-oxo-N-[(2S)-1-(trifluoromethoxy)propan-2-yl]-1-(2,4,6-trifluorophenyl)-1,4-dihydro-1,8-naphthyridine-3-carboxamide] | 50

Other lines, results leading:

Row | EC50 [nM] | SMILES
11 | 160 | O=C(NC(c1c(F)cccc1F)C(F)(F)F)c1cn(-c2ccc(F)cc2F)c2nc(N3CCCC(O)C3=O)ccc2c1=O (stereo not drawn) [Example 247, 1-(2,4-Difluorophenyl)-N-[1-(2,6-difluorophenyl)-2,2,2-trifluoroethyl]-7-[3-hydroxy-2-oxopiperidin-1-yl]-4-oxo-1,4-dihydro-1,8-naphthyridine-3-carboxamide]
12 | 74 | O=C(NC(c1ccccc1Cl)C(F)(F)F)c1cn(-c2ccc(F)cc2F)c2nc(N3CC[C@H](O)C3=O)ccc2c1=O (stereo partly drawn) [Example 298, N-[1-(2-Chlorophenyl)-2,2,2-trifluoroethyl]-1-(2,4-difluorophenyl)-7-[(3S)-3-hydroxy-2-oxopyrrolidin-1-yl]-4-oxo-1,4-dihydro-1,8-naphthyridine-3-carboxamide]
13 | 56 | O=C(NC(c1ccccc1Cl)C(F)(F)F)c1cn(-c2ccc(F)cc2F)c2nc(N3CC[C@@H](O)C3=O)ccc2c1=O (stereo partly drawn) [Example 299, N-[1-(2-Chlorophenyl)-2,2,2-trifluoroethyl]-1-(2,4-difluorophenyl)-7-[(3R)-3-hydroxy-2-oxopyrrolidin-1-yl]-4-oxo-1,4-dihydro-1,8-naphthyridine-3-carboxamide]
14 | 54 | O=C(NC(c1c(F)cccc1F)C(F)(F)F)c1cn(-c2ccc(F)cc2F)c2nc(N3CC[C@@H](O)C3=O)ccc2c1=O (stereo partly drawn) [Example 300, 1-(2,4-Difluorophenyl)-N-[1-(2,6-difluorophenyl)-2,2,2-trifluoroethyl]-7-[(3R)-3-hydroxy-2-oxopyrrolidin-1-yl]-4-oxo-1,4-dihydro-1,8-naphthyridine-3-carboxamide]
15 | 30 | CC[C@@H](NC(=O)c1cn(-c2c(F)cccc2Cl)c2nc(N3CC[C@@H](O)C3=O)ccc2c1=O)C(F)(F)F [Example 308, 1-(2-Chloro-6-fluorophenyl)-7-[(3R)-3-hydroxy-2-oxopyrrolidin-1-yl]-4-oxo-N-[(2R)-1,1,1-trifluorobutan-2-yl]-1,4-dihydro-1,8-naphthyridine-3-carboxamide]
16 | 40 | CC[C@@H](NC(=O)c1cn(-c2c(F)cccc2Cl)c2nc(N3CC[C@H](O)C3=O)ccc2c1=O)C(F)(F)F [Example 309, 1-(2-Chloro-6-fluorophenyl)-7-[(3S)-3-hydroxy-2-oxopyrrolidin-1-yl]-4-oxo-N-[(2R)-1,1,1-trifluorobutan-2-yl]-1,4-dihydro-1,8-naphthyridine-3-carboxamide]
17 | 43 | CC[C@@H](NC(=O)c1cn(-c2ccc(F)cc2F)c2nc(N3CCN(C)C3=O)ccc2c1=O)C(F)(F)F [Example 321, 1-(2,4-Difluorophenyl)-7-(3-methyl-2-oxoimidazolidin-1-yl)-4-oxo-N-[(2R)-1,1,1-trifluorobutan-2-yl]-1,4-dihydro-1,8-naphthyridine-3-carboxamide]
18 | 40 | C[C@@H](COC(F)(F)F)NC(=O)c1cn(-c2c(F)cc(F)cc2Cl)c2nc(N3C[C@@H](O)[C@H](O)C3)ccc2c1=O [Example 322, 1-(2-Chloro-4,6-difluorophenyl)-7-[(3R,4R)-3,4-dihydroxypyrrolidin-1-yl]-4-oxo-N-[(2S)-1-(trifluoromethoxy)propan-2-yl]-1,4-dihydro-1,8-naphthyridine-3-carboxamide]
19 | 34 | CC[C@@H](NC(=O)c1cn(-c2c(F)cc(F)cc2F)c2nc(N3CCC(C)(O)C3)ccc2c1=O)C(F)(F)F (stereo partly drawn) [Example 324, 7-[3-Hydroxy-3-methylpyrrolidin-1-yl]-4-oxo-N-[(2R)-1,1,1-trifluorobutan-2-yl]-1-(2,4,6-trifluorophenyl)-1,4-dihydro-1,8-naphthyridine-3-carboxamide]
20 | 69 | CC[C@H](NC(=O)c1cn(-c2c(F)cccc2F)c2nc(N3CCC(C)(O)C3)ccc2c1=O)C(F)(F)F (stereo partly drawn) [Example 327, 1-(2,6-Difluorophenyl)-7-[3-hydroxy-3-methylpyrrolidin-1-yl]-4-oxo-N-[(2S)-1,1,1-trifluorobutan-2-yl]-1,4-dihydro-1,8-naphthyridine-3-carboxamide]
21 | 36 | CC[C@@H](NC(=O)c1cn(-c2ccc(F)cc2F)c2nc(N3CCCC3=O)ccc2c1=O)C(F)(F)F [Example 337, 1-(2,4-Difluorophenyl)-4-oxo-7-(2-oxopyrrolidin-1-yl)-N-[(2R)-1,1,1-trifluorobutan-2-yl]-1,4-dihydro-1,8-naphthyridine-3-carboxamide]
22 | 56 | C[C@H](NC(=O)c1cn(-c2c(F)cc(F)cc2F)c2nc(N3CCNC3=O)ccc2c1=O)C(F)(F)F [Example 341, 4-Oxo-7-(2-oxoimidazolidin-1-yl)-1-(2,4,6-trifluorophenyl)-N-[(2S)-1,1,1-trifluoropropan-2-yl]-1,4-dihydro-1,8-naphthyridine-3-carboxamide]
23 | 25 | CC[C@H](NC(=O)c1cn(-c2c(F)cc(F)cc2F)c2nc(N3CCNC3=O)ccc2c1=O)C(F)(F)F [Example 343, 4-Oxo-7-(2-oxoimidazolidin-1-yl)-N-[(2S)-1,1,1-trifluorobutan-2-yl]-1-(2,4,6-trifluorophenyl)-1,4-dihydro-1,8-naphthyridine-3-carboxamide]
24 | 54 | CC[C@@H](NC(=O)c1cn(-c2ccc(F)cc2F)c2nc(N3CCCN(CC)C3=O)ccc2c1=O)C(F)(F)F [Example 344, 1-(2,4-Difluorophenyl)-7-(3-ethyl-2-oxotetrahydropyrimidin-1(2H)-yl)-4-oxo-N-[(2R)-1,1-trifluorobutan-2-yl]-1,4-dihydro-1,8-naphthyridine-3-carboxamide]

Reference: patent publication US20190367516A1 (Bayer Pharma Aktiengesellschaft, priority 2015, published 2019)
